# From patent US20260069694A1, “IDENTIFICATION OF HIGHLY IMMUNOSUPRESIVE TREG POPULATION IN TUMOR MICROENVIRONMENTS” (THE TRUSTEES OF COLUMBIA UNIVERSITY IN THE CITY OF NEW YORK, priority 2023, published 2026)
# Key:
# [1] = tested on: primary PDAC tumors of transgenic KPC mice; experiment: Long-term treatment of transgenic KPC mice; IHC/IF of primary PDAC tumors; format: in vivo, mouse; conditions: per high-power field
# Experimental: Long-term treatment studies using combinations of iRGD, Gem, and Nab-P in transgenic KPC mice and subsequent immunohistochemistry (IHC) were performed as previously reported.
# For the data presented in FIG. 1, primary PDAC tumors were collected from transgenic KPC mice that received long-term treatment with Gem, iRGD, or iRGD+Gem as part of a previously published survival study. The primary PDAC tumors were immunohistochemically analyzed for the presence of CD8+ T cells.
# Primary PDAC tumors were collected from transgenic KPC mice that received long-term treatment with or without Gem, iRGD, or iRGD+Gem as part of a previously published survival study. The presence of Foxp3+ Tregs in the primary PDAC tumors was analyzed by immunofluorescence.
# [2] = tested on: Tregs that were expanded in the presence of PDAC cells; experiment: FAM-iRGD binding to Tregs expanded with PDAC cells (flow cytometry); parameters: species or system mouse; conditions: flow cytometry MFI
# Experimental: The isolated immune cells were subjected to flow cytometry for quality check and to analyze the cell populations of interest. […] The binding was analyzed by flow cytometry.
# CD4+ T cells were magnetically isolated from the spleens of healthy C57B6129SF1/J mice using a mouse CD4+ T cell isolation kit (Miltenyi Biotec™). The CD4+ T cells were cultured for 3 days with or without KPC-derived PDAC cells in the presence of low dose anti-CD3/CD28 beads (×40 dilution; Miltenyi Biotec™), TGF-β1 (5 ng/ml; Bio-Techne Corporation™), and recombinant mouse interleukin-2 (mIL-2, 100 U/ml; Roche™), and subjected to flow cytometry as described elsewhere. In some cases, 1.0 mM iRGD was added to the culture in binding buffer supplemented with mIL-2 to study the effect on apoptosis. The cells were then stained with FITC-conjugated annexin V (BioLegend™) and 7-AAD (BioLegend™) for 15 minutes at room temperature to detect apoptotic cells by flow cytometry.
# For the data presented in FIG. 16 through FIG. 19, CD4+ T cells isolated from the spleen of healthy C57B6129SF1/J hybrid mice were expanded for 3 days in vitro in the presence of KPC-derived PDAC cells. Flow cytometry was performed for subsequent analyses. […] The bar diagram summarizes the median fluorescence intensity (MFI) from 4 independent experiments. […] Apoptosis was quantitated by measuring annexin V and 7-AAD double positive cells by flow cytometry (n=3).
sequence,measurement,setting,value
CRGDKGPDC [iRGD],number of CD8+ T cells in the PDAC tissue,"[1]; IHC, long-term treatment",increased the number of CD8+ T cells
same,PDAC-resident cells expressing Foxp3 (Foxp3+ Tregs),"[1]; immunofluorescence, compared to the other arms",less PDAC-resident cells expressing Foxp3
same,binding to αvβ5 integrin+ Tregs induced in the presence of PDAC cells,[2],Binds
